Assay results taken from ChEMBL document CHEMBL1201862, “PubChem BioAssay data set” (2004).
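Protocol summary: plate cells (96-well), add compound at 5 concentrations, incubate 48 h, interpolate endpoints linearly. GI50 marks 50% less growth.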 The source made the active and inactive calls. Rule as the data show it: active = GI50 up to about 1.1 µM and inactive = higher.

What was measured:
Assay in all cases: NCI tumour cell line growth inhibition, 48 h
A549 = system: A549
DU-145 = system: DU-145
HCT-116 = system: HCT-116
K562 = system: K562
KM12 = system: KM12
M14 = system: M14
MDA-MB-231 = system: MDA-MB-231
NCI-H522 = system: NCI-H522
NCI/ADR-RES = system: NCI/ADR-RES
OVCAR-8 = system: OVCAR-8
RPMI-8226 = system: RPMI-8226
SF-268 = system: SF-268
SF-295 = system: SF-295
SF-539 = system: SF-539
SK-MEL-2 = system: SK-MEL-2
SK-MEL-5 = system: SK-MEL-5
SR = system: SR
U-251 = system: U-251
DLD-1 = system: DLD-1
KM-20L2 = system: KM-20L2

Measured: GI50

CCN1c2ccccc2-n2c(C)nnc2-c2c(-c3ccccc3)n[nH]c21
inactive: A549 22.4 µM | DU-145 36.1 µM | HCT-116 26.5 µM | K562 4.83 µM | KM12 26.5 µM | M14 26.4 µM | MDA-MB-231 18.9 µM | NCI-H522 2.25 µM | NCI/ADR-RES 11.9 µM | OVCAR-8 24.7 µM | RPMI-8226 14.8 µM | SF-268 35.8 µM | SF-295 31 µM | SF-539 43.4 µM | SK-MEL-2 19.7 µM | SK-MEL-5 14.5 µM | SR 13 µM | U-251 18.5 µM

Cc1cc(NC(=S)Nc2ccccc2)c(NC(=S)Nc2ccccc2)cc1C
inactive: A549 23.3 µM | DLD-1 20.4 µM | HCT-116 14.3 µM | K562 9.44 µM | KM-20L2 36.7 µM | KM12 5.11 µM | NCI-H522 7.78 µM | NCI/ADR-RES 11.5 µM | OVCAR-8 40.1 µM | RPMI-8226 8.47 µM | SF-268 36.8 µM | SF-295 11.4 µM | SF-539 16 µM | SK-MEL-2 16.9 µM | SK-MEL-5 11.4 µM | U-251 15.7 µM

CC(=O)OC1COC(N2c3ccccc3[C@@H]3CCc4c([nH]c5ccccc45)[C@@H]32)C(OC(C)=O)C1OC(C)=O.CC(=O)OC1COC(N2c3ccccc3[C@H]3CCc4c([nH]c5ccccc45)[C@H]32)C(OC(C)=O)C1OC(C)=O (some centres undefined)
inactive: A549 16.7 µM | DU-145 > 100 µM | HCT-116 14.3 µM | KM12 12.1 µM | M14 42.6 µM | MDA-MB-231 14 µM | NCI-H522 12.8 µM | RPMI-8226 12 µM | SF-268 30.9 µM | SF-295 21.6 µM | SK-MEL-2 44.1 µM | SK-MEL-5 29.3 µM | SR 11.6 µM | U-251 80.7 µM

CC1=Nc2c(N)nc(N)nc2N(C)C1
inactive: DU-145 > 100 µM | K562 > 100 µM | KM12 > 100 µM | M14 > 100 µM | MDA-MB-231 > 100 µM | OVCAR-8 > 100 µM | RPMI-8226 > 100 µM | SF-268 > 100 µM | SF-295 > 100 µM | SF-539 > 100 µM | SK-MEL-2 > 100 µM | SK-MEL-5 > 100 µM | U-251 > 100 µM

CC(Sc1ccccc1)C(CO)(CO)[N+](=O)[O-] (centres undefined)
inactive: A549 19.8 µM | DLD-1 14.3 µM | HCT-116 17.8 µM | K562 11.2 µM | KM-20L2 17.2 µM | M14 16.9 µM | NCI-H522 13.5 µM | OVCAR-8 14.8 µM | RPMI-8226 18.9 µM | SF-268 22.8 µM | SF-295 14.7 µM | SF-539 16.7 µM | SK-MEL-2 18.2 µM | SK-MEL-5 12.7 µM | SR 2.34 µM | U-251 13.3 µM

CCC1C(C#N)=C(O)NC(O)=C1C#N
inactive: A549 > 100 µM | DLD-1 > 100 µM | HCT-116 > 100 µM | KM-20L2 > 100 µM | KM12 > 100 µM | M14 > 100 µM | NCI-H522 > 100 µM | OVCAR-8 > 100 µM | RPMI-8226 > 100 µM | SF-268 > 100 µM | SF-295 > 100 µM | SF-539 > 100 µM | SK-MEL-2 > 100 µM | SK-MEL-5 > 100 µM | U-251 > 100 µM

CCP(=O)(CC)C(Cl)(Cl)C(O)C(Cl)(Cl)Cl (centres undefined)
inactive: A549 > 100 µM | DU-145 > 100 µM | HCT-116 > 100 µM | K562 > 100 µM | M14 > 100 µM | MDA-MB-231 > 100 µM | NCI-H522 > 100 µM | NCI/ADR-RES > 100 µM | OVCAR-8 > 100 µM | RPMI-8226 > 100 µM | SF-295 > 100 µM | SK-MEL-2 > 100 µM | SK-MEL-5 > 100 µM | SR > 100 µM | U-251 > 100 µM

O=C(CCN1CCOCC1)/C(=C/c1ccccc1)c1ccccc1
inactive: A549 15.6 µM | DLD-1 1.89 µM | HCT-116 3.47 µM | K562 1.89 µM | KM-20L2 9.82 µM | KM12 6.25 µM | NCI-H522 1.77 µM | NCI/ADR-RES 2.48 µM | OVCAR-8 1.95 µM | RPMI-8226 2 µM | SF-268 7.11 µM | SF-295 12.3 µM | SF-539 2.92 µM | SK-MEL-2 8.17 µM | SK-MEL-5 8.45 µM | U-251 3.99 µM

C=C1C(=O)OC2C[C@@]3(C)CCCC(=C)C3CC12 (some centres undefined)
inactive: A549 12.2 µM | DLD-1 3.49 µM | HCT-116 4.05 µM | KM-20L2 12.2 µM | KM12 2.24 µM | M14 6.34 µM | NCI-H522 1.9 µM | OVCAR-8 11.7 µM | SF-268 12.9 µM | SF-295 11.4 µM | SF-539 1.95 µM | SK-MEL-2 3.91 µM | SK-MEL-5 7.64 µM | SR > 100 µM | U-251 10.1 µM

CCOC(=O)Cc1cc(OC)c(OC)cc1/C(Cl)=C(\C=O)c1ccc(OC)c(OC)c1
inactive: A549 16.9 µM | DLD-1 16.3 µM | HCT-116 14.4 µM | K562 17.2 µM | KM-20L2 15.3 µM | M14 16.1 µM | OVCAR-8 25.5 µM | RPMI-8226 9.75 µM | SF-295 15.2 µM | SK-MEL-2 19.7 µM | SK-MEL-5 17.1 µM | U-251 17.5 µM

CC(=O)c1c(-c2ccco2)c(C#N)c(=S)n(C2OC(CO)C(O)C(O)C2O)c1-c1ccccc1 (centres undefined)
inactive: A549 > 100 µM | DU-145 87.3 µM | HCT-116 66.2 µM | K562 58.9 µM | KM12 64.3 µM | M14 40.5 µM | MDA-MB-231 > 100 µM | NCI/ADR-RES 55.1 µM | OVCAR-8 81.8 µM | RPMI-8226 > 100 µM | SF-268 61.2 µM | SF-295 52.7 µM | SF-539 45.2 µM | SK-MEL-5 35.7 µM | SR 68.7 µM | U-251 28.4 µM

COc1ccc(-c2cc(O)c3c(C)ccnc3n2)cc1
inactive: A549 10.3 µM | DU-145 28.8 µM | K562 3.85 µM | KM12 3.18 µM | M14 10.8 µM | MDA-MB-231 49.5 µM | NCI-H522 8.13 µM | NCI/ADR-RES 20.2 µM | OVCAR-8 25.9 µM | RPMI-8226 9.31 µM | SF-268 15.1 µM | SF-539 17.4 µM | SK-MEL-2 7.6 µM
